Measured values reported in patent US10829520B2, “Beta-hairpin peptidomimetics” (POLYPHOR AG, priority 2015, dated 2020).
Where a SMILES comes first, the peptide text is derived from it. Bridges are numbered along the chain shown (N, C = ends). [ ]: non-standard residue; d: D form. Tle = CC(C)(C)[C@H](N)C(=O)O; Nle = CCCC[C@H](N)C(=O)O; Dab = NCC[C@H](N)C(=O)O; Dap = NC[C@H](N)C(=O)O

Assays:
Type in all cases: cell-based
[1] = system: Acinetobacter baumannii 872842; conditions: 872842
[2] = system: Acinetobacter baumannii DSM 30008; conditions: DSM 30008
Procedure, shortened: (§1)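 MIC in μg/mL; CLSI microdilution; cation-adjusted Mueller-Hinton II with Polysorbate 80 (0.002%); 10^6 CFU/mL; 35° C, 18-20 h.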

[3] = system: Escherichia coli 926415; conditions: 926415
[4] = system: Escherichia coli ATCC 25922; conditions: ATCC 25922
Procedure, shortened: as §1

[5] = system: Klebsiella pneumoniae 968733; conditions: 968733
[6] = system: Klebsiella pneumoniae SSI #3010; conditions: SSI #3010
Procedure, shortened: as §1

[7] = system: Pseudomonas aeruginosa ATCC 27853; conditions: ATCC 27853
Procedure, shortened: as §1

[8] = system: human red blood cells (hRBC); test: Hemolysis of human red blood cells; conditions: red cells of human, 1 h
Procedure, shortened: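 Percent hemolysis = OD540 of peptide-treated supernatant relative to the 2.5% Triton X-100 (100%) control, PBS containing 0.001% acetic acid defining 0%. Peptides tested at 100 μg/mL against 20% (v/v) washed human RBC, 1 h, 37 °C, 300 rpm.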

| Compound | Acinetobacter baumannii 872842 MIC [1] [µg/mL] | Acinetobacter baumannii DSM 30008 MIC [2] [µg/mL] | Escherichia coli 926415 MIC [3] [µg/mL] | Escherichia coli ATCC 25922 MIC [4] [µg/mL] | Klebsiella pneumoniae 968733 MIC [5] [µg/mL] | Klebsiella pneumoniae SSI #3010 MIC [6] [µg/mL] | Pseudomonas aeruginosa ATCC 27853 MIC [7] [µg/mL] | Hemolysis at 100 μg/mL [8]; 100 [%] | Hemolysis at 100 μg/mL ([8]; 100 μg/mL) [%] |
| --- | --- | --- | --- | --- | --- | --- | --- | --- | --- |
| CCCC[C@@H]1NC(=O)[C@@H]2CCCN2C(=O)[C@H]2CCCN2C(=O)[C@H](CO)NC(=O)[C@H](C)NC(=O)[C@H](C(C)(C)C)NC(=O)[C@@H](NC(=O)[C@H](Cc2c[nH]c3ccccc23)NC(C)=O)CCC(=O)NCC[C@@H](C(=O)N[C@@H](CCN)C(=O)N[C@H](C(=O)N[C@@H](CCN)C(=O)N[C@H]2CCNC(=O)[C@H]([C@@H](C)O)NC(=O)[C@H](CCN)NC(=O)[C@H](CCN)NC(=O)[C@H](CC(C)C)NC(=O)[C@@H](Cc3ccccc3)NC(=O)[C@H](CCN)NC2=O)[C@@H](C)O)NC(=O)[C@H](Cc2ccc(O)cc2)NC(=O)[C@H](CO)NC1=O [Ex. 14] (Ac-WE[Tle]AS[dP]P[Nle]SY[Dab][Dab]T[Dab][Dab][Dab][dF]L[Dab][Dab]T; lactam 2-11, 15-C) | 1 | 0.5 | 4 | 0.5 | 8 | 1 | 1 | <1 |  |
| CCCC[C@@H]1NC(=O)[C@@H]2CCCN2C(=O)[C@H]2CCCN2C(=O)[C@H](CO)NC(=O)[C@H](C)NC(=O)[C@H](C(C)(C)C)NC(=O)[C@@H](NC(=O)[C@@H](N)Cc2c[nH]c3ccccc23)CSSC[C@@H](C(=O)N[C@@H](CCN)C(=O)N[C@H](C(=O)N[C@@H](CCN)C(=O)N[C@H]2CCNC(=O)[C@H]([C@@H](C)O)NC(=O)[C@H](CCN)NC(=O)[C@H](CCN)NC(=O)[C@H](CC(C)C)NC(=O)[C@@H](CC(C)C)NC(=O)[C@H](CCN)NC2=O)[C@@H](C)O)NC(=O)[C@H](Cc2ccc(O)cc2)NC(=O)[C@H](CO)NC1=O [Ex. 15] (H-WC[Tle]AS[dP]P[Nle]SYC[Dab]T[Dab][Dab][Dab][dL]L[Dab][Dab]T; disulfide 2-11; lactam 15-C) | 0.25 | 0.5 | 0.125 | 0.125 | 2 | 0.25 | 1 |  | 1 |
| CCCC[C@@H]1NC(=O)[C@@H]2CCCN2C(=O)[C@H]2CCCN2C(=O)[C@H](CO)NC(=O)[C@H](C)NC(=O)[C@H](C(C)(C)C)NC(=O)[C@@H](NC(=O)[C@@H](N)Cc2c[nH]c3ccccc23)CSSC[C@@H](C(=O)N[C@@H](CCN)C(=O)N[C@H](C(=O)N[C@@H](CN)C(=O)N[C@H]2CCNC(=O)[C@H]([C@@H](C)O)NC(=O)[C@H](CCN)NC(=O)[C@H](CCN)NC(=O)[C@H](CC(C)C)NC(=O)[C@@H](Cc3ccccc3)NC(=O)[C@H](CCN)NC2=O)[C@@H](C)O)NC(=O)[C@H](Cc2ccc(O)cc2)NC(=O)[C@H](CO)NC1=O [Ex. 16] (H-WC[Tle]AS[dP]P[Nle]SYC[Dab]T[Dap][Dab][Dab][dF]L[Dab][Dab]T; disulfide 2-11; lactam 15-C) | 0.25 | 0.25 | 0.125 | 0.5 | 0.375 | 0.25 | 0.25 |  | 3 |
